Legend:
[1] = Antioxidant activity assessed as copper-chelating scavenging activity; assay type: functional
[2] = Inhibition of lipid peroxidation; assay type: functional

Row | IC50 [1] [µM] | IC50 [2] [µM] | Structure (SMILES)
1 | 3 | 3.5 | O=C1CC(c2ccccc2)=NN1c1ccccc1
2 | 9 | 4.5 | CC1=NN(c2ccccc2)C(=O)C1 [EDARAVONE]

— ChEMBL document CHEMBL4627355, “Chemical reactivity and uses of 1-phenyl-3-methyl-5-pyrazolone (PMP), also known as edaravone” (Bioorg Med Chem, 2020)
